In patent US4110165A, “Process for the production of clavulanic acid” (Beecham Group Limited, priority 1974, dated 1978):
Values after ≈ are worked out from the molar mass of the structure shown. Structures can show the parent of a compound that is named as a salt. Values belong to the molecule of their own block, whether it stands above or below them.

How the values were obtained:
[1] = test system: Escherichia coli 10418; experiment: MIC, method of Example 30 with 1/100 dilution of overnight broth (Example 46)
[2] = Blood and tissue levels in female mice; format: in vivo; details: oral administration of 100 mg/kg
[3] = test system: Klebsiella aerogenes A; experiment: Growth inhibition, penicillins with and without synergist; format: cell-based
[4] = test system: bacteria; experiment: Tests for antibacterial activity in broth (Example 32); format: cell-based
[5] = test system: Klebsiella aerogenes A; experiment: Antibacterial synergism MIC, microtiter method (Example 42); format: cell-based; details: unit not given; method of Example 42
[6] = test system: Klebsiella aerogenes 62; experiment: as above; format: cell-based; details: unit not given; method of Example 42
[7] = test system: Staphylococcus aureus (Russell); experiment: M.I.C. synergism with clavulanic acid methyl ester (Example 32); format: cell-based
[8] = test system: Proteus mirabilis C889; experiment: as above; format: cell-based
[9] = test system: Klebsiella aerogenes E 70; experiment: Antibacterial synergism MIC, microtiter method (Example 42); format: cell-based; details: unit not given; method of Example 42
[10] = test system: Staph. aureus Russell; experiment: MIC, method of Example 30 with 1/100 dilution of overnight broth (Example 46); details: Staphylococcus aureus
[11] = test system: Staph. aureus Oxford; experiment: as above; details: Staphylococcus aureus
[12] = test system: Bacillus subtilis A; experiment: as above
[13] = Stability in human blood; format: in vitro ADME
[14] = test system: Staphylococcus aureus; experiment: Antibacterial synergism MIC, microtiter method (Example 42); format: cell-based; details: method of Example 42

SMILES: O=C(O)[C@H]1/C(=C/CO)O[C@@H]2CC(=O)N21 [clavulanic acid sodium salt, 3-(β-hydroxyethylidine)-7-oxo-4-oxa-1-azabicyclo [3,2,0]heptane-2-carboxylic acid sodium salt]
MIC [1]: 125 µg/mL
levels of clavulanic acid after oral administration [2]: useful levels

SMILES: CC1(C)S[C@@H]2[C@H](NC(=O)Cc3ccccc3)C(=O)N2[C@H]1C(=O)O [Benzylpenicillin, benzylpenicillin]
concentration inhibiting growth when 5 μg/ml. of clavulanic acid is also present [3]: less than 12.5 μg/ml.

MIC [1]: 125 µg/mL (≈ 432 µM)
SMILES: O=C(OCc1ccccc1)[C@H]1/C(=C/CO)O[C@@H]2CC(=O)N21 [clavulanic acid benzyl ester, benzyl ester of 3-(β-hydroxyethylidine)-7-oxo-4-oxa-1-azabicyclo [3,2,0]heptane-2-carboxylic acid]

SMILES: COC(=O)[C@H]1/C(=C/CO)O[C@@H]2CC(=O)N21 [clavulanic acid methyl ester]
antibacterial activity in broth [4]: broad spectrum activity but of a lower order than shown by clavulanic acid

SMILES: CC1(C)S[C@@H]2[C@H](NC(=O)[C@H](N)c3ccccc3)C(=O)N2[C@H]1C(=O)O [Ampicillin, ampicillin]
M.I.C., Ampicillin + 5 μg/ml of Benzyl Ester of clavulanic acid [5]: 1.9
M.I.C., Ampicillin + 5 μg/ml of Methyl Ester of clavulanic acid [5]: 1.9
M.I.C., Ampicillin + 5 μg/ml of Benzyl Ester of clavulanic acid [6]: 3.9
M.I.C., Ampicillin + 5 μg/ml of Methyl Ester of clavulanic acid [6]: 3.9
M.I.C. in the presence of 1.0 μg/ml. clavulanic acid methyl ester [7]: < 0.4 µg/mL
M.I.C. in the presence of 5 μg/ml. clavulanic acid methyl ester [8]: 31 µg/mL
M.I.C., Ampicillin + 5 μg/ml of Benzyl Ester of clavulanic acid [9]: 3.9
M.I.C., Ampicillin + 5 μg/ml of Methyl Ester of clavulanic acid [9]: 3.9

MIC [1]: 125 µg/mL (≈ 377 µM)
MIC [10]: 15 µg/mL (≈ 45.3 µM)
MIC [11]: 31 µg/mL (≈ 93.6 µM)
MIC [12]: 125 µg/mL (≈ 377 µM)
SMILES: O=C1OC(OC(=O)[C@H]2/C(=C/CO)O[C@@H]3CC(=O)N32)c2ccccc21 (some centres unmarked) [Phthalidyl ester, Clavulanic Acid Phthalide Esters]

SMILES: O=C(O)[C@H]1/C(=C/CO)O[C@@H]2CC(=O)N21 [clavulanic acid, Z-(2R,5R)-3-(β-hydroxyethylidene)-7-oxo-4-oxa-1-azabicyclo[3,2,0]heptane-2-carboxylic acid]
stability in human blood [13]: high stability

SMILES: O=C(Cc1cccs1)N[C@@H]1C(=O)N2C(C(=O)[O-])=C(C[n+]3ccccc3)CS[C@H]12 [Cephaloridine, cephaloridine]
M.I.C. in the presence of 1.0 μg/ml. clavulanic acid methyl ester [7]: < 0.03 µg/mL
Minimum Inhibitory Concentration in presence of 5μg/ml clavulanic acid sodium salt [14]: 3.7 µg/mL
